From publication PMC11284788, “NN1213 – A Potent, Long-Acting, and Selective Analog of Human Amylin” (Journal of Medicinal Chemistry, 2024)

Key:
[1] = system: DIO rats; test: DIO rat weight loss assay; type: in vivo; conditions: for Absolute body weight Day 21: mean ± SEM; for reduction in body weight relative to baseline: 21 days, n = 8/group
Description: The ability of NN1213 to reduce body weight was tested in DIO rats fed an HFD. Rats were dosed once daily sc with either vehicle or NN1213 (n = 8–10 per group). Food intake and body weight were measured daily on individually housed rats. […] Body fat and lean mass are expressed as changes from baseline.
VetXX, Specific CCD, Dechra, UK).
eaten within 30 min. […] In figure 4, mean accumulated food
rats were assessed in DIO rats.
controlled temperature conditions (22 °C).
Pharmacokinetic Evaluation.
Species n administration (nmol/kg) (h)

[2] = in vivo; conditions: male, Göttingen, minipig, iv
[3] = in vivo; conditions: male, beagle, dog, iv
[4] = system: beagle dogs; test: Acute dog food intake assay
[5] = molecular target: T1, hAMY3R (Homo sapiens, UniProt O60896+P30988); test: Species-specific cAMP assay, hAMY3R; conditions: ratio of cAMP EC50 values, human receptors
T1 sequence (P30988 25-474): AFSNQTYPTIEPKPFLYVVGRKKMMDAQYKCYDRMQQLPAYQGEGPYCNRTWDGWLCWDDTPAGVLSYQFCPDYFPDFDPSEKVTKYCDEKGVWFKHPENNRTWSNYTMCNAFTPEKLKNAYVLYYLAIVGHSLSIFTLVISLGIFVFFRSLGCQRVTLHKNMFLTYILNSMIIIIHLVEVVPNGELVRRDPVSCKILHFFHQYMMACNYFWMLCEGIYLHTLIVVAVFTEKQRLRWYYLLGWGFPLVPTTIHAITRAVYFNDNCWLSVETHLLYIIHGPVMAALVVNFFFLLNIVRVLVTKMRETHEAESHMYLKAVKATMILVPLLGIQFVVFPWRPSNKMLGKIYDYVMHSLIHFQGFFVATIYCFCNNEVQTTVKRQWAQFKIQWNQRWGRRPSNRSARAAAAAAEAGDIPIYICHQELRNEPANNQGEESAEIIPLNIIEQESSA
T1 sequence (O60896 24-148 partner): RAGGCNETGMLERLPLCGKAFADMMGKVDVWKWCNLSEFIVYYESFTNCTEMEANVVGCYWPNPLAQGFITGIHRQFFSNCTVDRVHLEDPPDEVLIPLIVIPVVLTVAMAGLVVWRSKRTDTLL

[6] = system: cAMY1R; test: Species-specific cAMP assay, cAMY1R; conditions: for Ratio CTR/AMY1R (canine, functional): ratio of cAMP EC50 values, canine receptors
[7] = molecular target: T2, rAMY1R (Rattus norvegicus, UniProt P32214+Q9JJ74); test: Whole-cell competition binding, rAMY1R; design: expressed in transfected cells; host or cells: BHK tk-ts 13 cells, transient, FuGENE 6; conditions: IC50 for the CTR divided by that of the AMYR, rat receptors
T2 sequence (P32214 25-516): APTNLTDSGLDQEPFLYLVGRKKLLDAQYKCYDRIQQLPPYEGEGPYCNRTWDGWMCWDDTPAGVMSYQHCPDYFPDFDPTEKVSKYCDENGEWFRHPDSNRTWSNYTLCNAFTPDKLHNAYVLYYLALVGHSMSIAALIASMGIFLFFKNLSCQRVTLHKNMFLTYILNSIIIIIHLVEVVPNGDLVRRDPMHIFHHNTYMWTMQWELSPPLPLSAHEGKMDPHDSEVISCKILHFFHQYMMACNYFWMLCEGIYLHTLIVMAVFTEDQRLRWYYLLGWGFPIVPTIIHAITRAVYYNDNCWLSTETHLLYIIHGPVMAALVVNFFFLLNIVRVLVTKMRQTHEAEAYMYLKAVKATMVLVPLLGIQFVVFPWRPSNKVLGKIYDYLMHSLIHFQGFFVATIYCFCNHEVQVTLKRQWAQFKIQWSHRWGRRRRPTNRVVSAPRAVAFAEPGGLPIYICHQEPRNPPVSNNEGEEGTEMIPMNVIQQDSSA
T2 sequence (Q9JJ74 27-148 partner): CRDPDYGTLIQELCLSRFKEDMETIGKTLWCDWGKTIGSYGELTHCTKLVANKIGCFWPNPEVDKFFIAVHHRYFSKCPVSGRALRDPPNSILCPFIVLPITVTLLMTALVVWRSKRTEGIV

[8] = molecular target: hAMY1R (Homo sapiens, UniProt O60894+P30988); test: Whole-cell competition binding, hAMY1R; design: expressed in transfected cells; host or cells: BHK tk-ts 13, transient co-transfection (FuGENE 6); conditions: IC50 for the CTR divided by that of the AMYR, human receptors
Chain of hAMY1R (O60894 27-148 partner, one chain of several): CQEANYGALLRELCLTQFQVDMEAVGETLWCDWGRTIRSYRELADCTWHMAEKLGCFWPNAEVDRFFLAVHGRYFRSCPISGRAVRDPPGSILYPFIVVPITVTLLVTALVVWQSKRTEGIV

[9] = molecular target: T3, rAMY3R (Rattus norvegicus, UniProt P32214+Q9JJ73); test: Whole-cell competition binding, rAMY3R; design: expressed in transfected cells; host or cells: BHK tk-ts 13, transient co-transfection (FuGENE 6); conditions: IC50 for the CTR divided by that of the AMYR, rat receptors
T3 sequence (P32214 25-479 isoform P32214-2 limits assumed): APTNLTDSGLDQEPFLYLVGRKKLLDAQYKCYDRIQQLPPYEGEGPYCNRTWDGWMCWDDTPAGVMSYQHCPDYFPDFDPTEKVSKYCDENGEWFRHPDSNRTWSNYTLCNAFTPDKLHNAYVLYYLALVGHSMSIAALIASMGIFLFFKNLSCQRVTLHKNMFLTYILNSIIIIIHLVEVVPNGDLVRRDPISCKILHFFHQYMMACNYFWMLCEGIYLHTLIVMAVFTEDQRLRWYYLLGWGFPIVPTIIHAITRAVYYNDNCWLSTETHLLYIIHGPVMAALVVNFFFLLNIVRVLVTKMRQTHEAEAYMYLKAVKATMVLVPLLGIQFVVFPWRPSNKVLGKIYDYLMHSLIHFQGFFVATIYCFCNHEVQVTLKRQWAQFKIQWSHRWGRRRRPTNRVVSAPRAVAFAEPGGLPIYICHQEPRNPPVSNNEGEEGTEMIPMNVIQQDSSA
T3 sequence (Q9JJ73 23-147 partner): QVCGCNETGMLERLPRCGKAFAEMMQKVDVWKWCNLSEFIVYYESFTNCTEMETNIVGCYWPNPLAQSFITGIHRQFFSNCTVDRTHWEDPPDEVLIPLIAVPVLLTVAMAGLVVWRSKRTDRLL

## CC[C@H](C)[C@H](NC(=O)[C@H](C)NC(=O)CNC(=O)[C@H](Cc1ccccc1)NC(=O)[C@H](CC(N)=O)NC(=O)[C@@H]1CCCN1C(=O)[C@H](CO)NC(=O)[C@H](CO)NC(=O)[C@H](Cc1c[nH]cn1)NC(=O)[C@H](CCCNC(=N)N)NC(=O)[C@H](CC(C)C)NC(=O)[C@H](Cc1ccccc1)NC(=O)[C@H](CC(=O)O)NC(=O)[C@H](C)NC(=O)[C@H](CC(C)C)NC(=O)[C@H](CCCNC(=N)N)NC(=O)[C@H](CCC(N)=O)NC(=O)[C@@H](NC(=O)[C@H](C)NC(=O)[C@@H]1CSSC[C@H](NC(=O)[C@@H](N)CCCCNC(=O)CC[C@H](NC(=O)CC[C@H](NC(=O)CCCCCCCCCCCCCCCCCCC(=O)O)C(=O)O)C(=O)O)C(=O)N[C@@H](CC(N)=O)C(=O)N[C@@H]([C@@H](C)O)C(=O)N[C@@H](C)C(=O)N[C@@H]([C@@H](C)O)C(=O)N1)[C@@H](C)O)C(=O)N1CCC[C@H]1C(=O)N[C@@H](CO)C(=O)N[C@@H](CO)C(=O)N[C@H](C(=O)N[C@@H](CC(N)=O)C(=O)N[C@H](C(=O)NCC(=O)N[C@@H](CO)C(=O)N[C@@H](CCCNC(=N)N)C(=O)N[C@H](C(=O)N[C@@H](Cc1ccc(O)cc1)C(N)=O)[C@@H](C)O)C(C)C)[C@@H](C)O [NN1213]
[1]; 3 µg/kg (0.7 nmol/kg) sc once daily
  Absolute body weight Day 21: 705.5 ± 38.4 g
[1]; 10 µg/kg (2.2 nmol/kg) sc once daily
  Absolute body weight Day 21: 664.4 ± 19.3 g
[1]; 30 µg/kg (6.6 nmol/kg) sc once daily
  Absolute body weight Day 21: 682.4 ± 27.7 g
[1]; 100 µg/kg (22 nmol/kg) sc once daily
  Absolute body weight Day 21: 667.8 ± 11.9 g
[1]; high-dose group (22 nmol/kg) sc once daily
  body weight lost after 21 days: 69.6 ± 7.5 g
[1]; low-dose group 0.7 nmol/kg sc once daily
  body weight lost after 21 days: 32.0 ± 3.6 g
[1]; sc once daily 0.7 nmol/kg
  reduction in body weight relative to baseline: 4.7%
[1]; sc once daily 2.2, 6.6, 22 nmol/kg doses
  reduction in body weight relative to baseline: 8.7–9.3%
[2]
  half-life: 116 h
[3]
  half-life: 76 h
[4]; single sc administration 300 nmol/kg, four meals over 48 h
  food intake reduction, first 48 h: 90%
[4]; single sc dose 3 nmol/kg
  effect on appetite: did not affect appetite
[4]; single sc dose 30 nmol/kg
  duration of appetite suppression: at least 7 days
[4]; single sc dose ranging from 3 to 300 nmol/kg
  tolerability (discomfort, vomiting): not associated with any signs of discomfort in the dogs and no vomiting
[5]
  Ratio CTR/AMY3R (human, functional): 51
[6]; cAMP HTRF, transiently transfected BHK cells, 30 min room temperature, five experiments
  cAMY1R pEC50: 9.87
[6]
  Ratio CTR/AMY1R (canine, functional): 3
[6]; listed as NN1213/peptide 21
  Ratio CTR/AMY1R (canine, functional): 2
[7]
  Ratio CTR/AMY1R (rat, binding): 190
[8]
  Ratio CTR/AMY1R (human, binding): 120
[9]
  Ratio CTR/AMY3R (rat, binding): 52
